SMILES strings stand for the structures.

Data set [1] has as its system OSR1-GFP reporter iPS cells. In words: Induction of differentiation into intermediate mesoderm cells (novel induction method 1), flow cytometry using OSR1 (GFP) expression. The format is cell-based, human. Conditions: novel induction method 1: 2 days 3 micromolar CHIR99021 + 10 micromolar Y-27632, then 8 days 1 micromolar retinoic acid derivative. The method, then:
(§1) Human iPS cells (201B7) provided by Dr. Yamanaka at Kyoto University were cultured by the known method (Takahashi, K. et al., Cell 131: 861-872). Subsequently, a GFP-PGK-Neo cassette was inserted into a site downstream of the OSR1 initiation codon of a BAC clone (RP11-458J18) (BACPAC RESOURCES) using pRed/ET (Gene Bridges GmbH), so as to prepare a OSR1-GFP BAC transgene. The resulting modified BAC clone was introduced into the human iPS cell and the OSR1-GFP reporter iPS cell line expressing GFP in conjunction with the expression of endogenous OSR1 was established.
(§2) The above OSR1-GFP reporter iPS cells were cultured to confluence on a 10-cm dish using SNL cells as feeder cells (McMahon, A. P. and Bradley, A., 1990, Cell 62; 1073-1085). A CTK solution was added to the cells for dissociation, the feeder cells were removed, and the iPS cells were dispersed into single cells with the addition of Accutase.
Subsequently, the iPS cells were suspended in a DMEM/F12 medium containing Glutamax, 2% FBS, and PenStrep, and 10 micromolar Y-27632 and 3 micromolar CHIR99021 were added thereto. Subsequently, the cell suspension was transferred to a dish coated with 0.1% gelatin, and culture was conducted for 2 days. […]
After the cell culture had been conducted for 8 days, the cells were analyzed by flow cytometry (FACS) using OSR1 expression as an indicator.
(Flow cytometry measures light scatter and fluorescence of single cells or particles in a stream.)

Data set [2] relates to intranuclear receptor of retinoic acid (RAR). In words: Activity through retinoic acid pathway compared with ATRA. As to conditions: stated as effect of the invention, no test described.
The subject of data set [3] is OSR1-GFP reporter iPS cells. Description: Induction of differentiation into intermediate mesoderm cells (novel induction methods 2 and 3), flow cytometry using OSR1 (GFP) expression; time course. In kind it is cell-based, human. Conditions: for time at which growth of OSR1 positive cells had plateau after the medium change: cell numbers measured 3, 5, 8 or 12 days after change to medium with 1 micromolar retinoic acid derivative. As for the experimental part:
as §1, §2
Subsequently, the iPS cells were suspended in a DMEM/F12 medium containing Glutamax, 2% FBS, and PenStrep, and a combination of (1) 10 micromolar Y-27632 (ROCK inhibitor), 3 micromolar CHIR99021, and 1 micromolar AM580 or (2) 10 micromolar Y-27632 (ROCK inhibitor), 3 micromolar CHIR99021, and 1 micromolar TTNPB was added thereto. Subsequently, the cell suspension was transferred to a dish coated with 0.1% gelatin, and culture was conducted for 2 days.
Thereafter, the medium was removed, the culture product was washed in PBS, and the iPS cells were then cultured for an additional 8 days (novel induction method 2) or 3 days (novel induction method 3) in a medium prepared by adding 1 micromolar AM580 or 1 micromolar TTNPB to a DMEM/F12 medium containing 2-mercaptoethanol, Glutamax, 10% KOCKOUT SR, 0.1 mM MEM NEAA, and PenStrep. During culture, the medium was exchanged with fresh medium once every 3 days in the case of the novel induction method 2.
After the cell culture had been conducted for 8 or 3 days, the cells were analyzed by flow cytometry (FACS) using OSR1 expression as an indicator.
Next, the length of time from medium change was studied. Briefly, number of OSR1 positive cells and total cells were measured at 3 days (novel induction method 3), 5 days, 8 days (novel induction method 2) or 12 days after the medium was changed to a medium prepared by adding 1 micromolar AM580 or 1 micromolar TTNPB to a DMEM/F12 medium containing 2-mercaptoethanol, Glutamax, 10% KOCKOUT SR, 0.1 mM MEM NEAA, and PenStrep (FIG. 4). The growth of OSR1 positive cells had plateau at 8 day after the medium change.

The nature of data set [4]: Cytotoxicity compared with ATRA. The format is cell-based. As to conditions: stated as effect of the invention, no test described.
The test system of data set [5] is iPS cell clones (201B6, 253G1, 263G4 and 585A1) and ES cell clone (KhES1, KhES3 and H9). In words: Level of OSR1 expression after differentiation from each iPS cell clone or ES clone (novel induction method 3). The format is cell-based, human. The source says: White bar indicates the result using AM580. Black bar indicates the result using TTNPB. Grey bar indicate the result of conventional method without AM580 and TTNPB.

Data set [6] concerns OSR1-GFP reporter iPS cells. In words: Suspention culture of OSR1 (GFP) positive cells to form sphere, immunostaining. As to conditions: novel induction method 3 with 1 micromolar TTNPB, then suspention culture on low cell adhesion plate. In kind it is cell-based, human. As for the experimental part: (§3) The above OSR1-GFP reporter iPS cells were dispersed into single cells in a manner similar to Example 2. Subsequently, the iPS cells were suspended in a DMEM/F12 medium containing Glutamax, 2% FBS, and PenStrep, and a combination of 10 micromolar Y-27632, 3 micromolar CHIR99021, and 1 micromolar TTNPB was added thereto. Subsequently, the cell suspension was transferred to a dish coated with 0.1% gelatin, and culture was conducted for 2 days. Thereafter, the medium was removed, the culture product was washed in PBS, and the iPS cells were then cultured for an additional 3 days (novel induction method 3) in a medium prepared by adding 1 micromolar TTNPB to a DMEM/F12 medium containing 2-mercaptoethanol, Glutamax, 10% KOCKOUT SR, 0.1 mM MEM NEAA, and PenStrep. After isolating GFP positive cells from obtained cells with flow cytometer, 1×10^5 GFP positive cells were transferred to a low cell adhesion plate (PrimeSurface, Sumitomo Bakelite co.), and cultured in DMEM/F12 medium containing 10 micromolar Y-27632, 2-mercaptoethanol, Glutamax, 10% KOCKOUT SR, 0.1 mM MEM NEAA, and PenStrep in suspention to form cell sphere. During culture, the medium was exchanged with fresh medium once every 3 days.
Obtained cells were analyzed with immunostaining (FIG. 8).

The test system of data set [7] is OSR1-GFP reporter iPS cells. In words: Long term culture of OSR1 (GFP) positive cells, RT-PCR and immunostaining. The format is cell-based, human. Conditions: novel induction method 3 with 1 micromolar TTNPB, then 8 days with 100 ng/ml BMP7, 100 ng/ml Wnt3a on Matrigel. As for the experimental part:
as §3, with “cells were dissociated into single” for “cells were dispersed into single”, “flow cytometer, the GFP positive” for “flow cytometer, 1×10^5 GFP positive”, “to a dish coated with Matrigel (BD), and cultured” for “to a low cell adhesion plate (PrimeSurface, Sumitomo Bakelite co.), and cultured”, “micromolar Y-27632, 100 ng/ml BMP7, 100 ng/ml Wnt3a, 2-mercaptoethanol, Glutamax,” for “micromolar Y-27632, 2-mercaptoethanol, Glutamax,”, “and PenStrep for 8 days. During culture,” for “and PenStrep in suspention to form cell sphere. During culture,”, “3 days. Obtained cells were analyzed with RT-PCR (FIG. 7A) and immunostaining (FIG. 7B). […]” for “3 days.”

Data set [8] concerns OSR1-GFP reporter iPS cells. Description: Organ culture of OSR1 (GFP) positive cells with mouse metanephric cells, immunostaining. The format is cell-based, human. As to conditions: novel induction method 3 with 1 micromolar TTNPB, then mixed with E11.5 mouse metanephric cells, 7 days floating culture. As for the experimental part:
The above OSR1-GFP reporter iPS cells were dissociated into single cells in a manner similar to Example 2. Subsequently, the iPS cells were suspended in a DMEM/F12 medium containing Glutamax, 2% FBS, and PenStrep, and a combination of 10 micromolar Y-27632, 3 micromolar CHIR99021, and 1 micromolar TTNPB was added thereto. Subsequently, the cell suspension was transferred to a dish coated with 0.1% gelatin, and culture was conducted for 2 days. Thereafter, the medium was removed, the culture product was washed in PBS, and the iPS cells were then cultured for an additional 3 days (novel induction method 3) in a medium prepared by adding 1 micromolar TTNPB to a DMEM/F12 medium containing 2-mercaptoethanol, Glutamax, 10% KOCKOUT SR, 0.1 mM MEM NEAA, and PenStrep. After isolating GFP positive cells from obtained cells with flow cytometer, 1×10^4 GFP positive cells were mixed with 1×10^5 mouse metanephric cells obtained from E11.5 mouse embryo on a low cell adhesion plate (PrimeSurface). The next day, cell sphere was transferred on the Isopore™ Membrane Filters (Merck Millipore) floated on Improve MEM medium containing 10 micromolar Y-27632, 10% FBS and PenStrep. During culture, the medium was exchanged with fresh medium once every 3 days. Obtained cells were analyzed with immunostaining at 7 days after floating culture (FIG. 9).

Setting [9] is: novel induction method 2: 2 days 3 micromolar CHIR99021 + 10 micromolar Y-27632 + 1 micromolar retinoic acid derivative, then 8 days 1 micromolar retinoic acid derivative.
Where [10] appears, read: novel induction method 3: 2 days 3 micromolar CHIR99021 + 10 micromolar Y-27632 + 1 micromolar retinoic acid derivative, then 3 days 1 micromolar retinoic acid derivative.

For the compound `CC1(C)CCC(C)(C)c2cc(C(=O)Nc3ccc(C(=O)O)cc3)ccc21` [AM580, 4-[[(5,6,7,8-tetrahydro-5,5,8,8-tetramethyl-2-naphthalenyl)carbonyl]amino]-benzoic acid], the “induction of OSR1-positive cells (FACS)” value in data set [1], in data set [3] (setting [9]) and in data set [3] (setting [10]) was “OSR1-positive cells were successfully induced” each time. In addition, the “activity relative to all-trans retinoic acid (ATRA)” value in data set [2] is “higher than that of all-trans retinoic acid (ATRA)”. Further, the “time at which growth of OSR1 positive cells had plateau after the medium change” value in data set [3] is 8 days. Also, the “cytotoxicity relative to ATRA” value in data set [4] is listed as “lower cytotoxicity compared with ATRA”. For the same compound, the “differentiation of further iPS and ES cell clones into intermediate mesoderm cells” value in data set [5] is listed as “could be differentiated into intermediate mesoderm cells”.

On to `C/C(=C\c1ccc(C(=O)O)cc1)c1ccc2c(c1)C(C)(C)CCC2(C)C` [TTNPB, 4-[(1E)-2-(5,6,7,8-tetrahydro-5,5,8,8-tetramethyl-2-naphthalenyl)-1-propen-1-yl]-benzoic acid], for which the “induction of OSR1-positive cells (FACS)” value in data set [1], in data set [3] (setting [9]) and in data set [3] (setting [10]) was “OSR1-positive cells were successfully induced” each time. Also, the “activity relative to all-trans retinoic acid (ATRA)” value in data set [2] is listed as “higher than that of all-trans retinoic acid (ATRA)”. Moreover, the “luminal structure formation from OSR1 positive cells by forming sphere” value in data set [6] is “luminal structure could be constructed”. The “time at which growth of OSR1 positive cells had plateau after the medium change” value in data set [3] amounted to 8 days. For the same compound, in data set [7], the “further differentiation of obtained OSR1 positive cells” value is listed as “could be further differentiated into renal precursor cells”. Moreover, the “cytotoxicity relative to ATRA” value in data set [4] was “lower cytotoxicity compared with ATRA”. In data set [5], the “differentiation of further iPS and ES cell clones into intermediate mesoderm cells” value is reported as “could be differentiated into intermediate mesoderm cells”. For the same compound, the “luminal structure formation from OSR1 positive cells by mixed culture with organ” value in data set [8] is “luminal structure could be constructed”.

The values above are taken from patent US9890357B2, “Method for inducing differentiation of human pluripotent stem cells into intermediate mesoderm cells” (Kyoto University, priority 2011, dated 2018).
